Test results from patent publication US8575107B2, “Clusterin derived peptide” (Compugen Ltd., priority 2008, dated 2013).
Where a SMILES comes first, the peptide text is derived from it.

How the values were obtained:
[1] = target: T1, recombinant human clusterin (Homo sapiens, UniProt P10909); assay: BIAcore SPR, CGEN-CL1 co-incubated with partner helix, binding to clusterin; details: CGEN-CL1 and SEQ ID NO:5, 10 μM each, preincubated 30 minutes
T1 construct: purchased Biovendor RD172034100
Method: Peptide-protein interaction was analyzed using surface plasmon resonance. Analysis of the interaction between CGEN-CL1 [SEQ ID NO:1] and recombinant human clusterin (Biovendor, Modrice, Czech republic cat no: RD172034100) was conducted using the BIAcore biosensor (Pharmacia Biosensor, Uppsala, Sweden). Clusterin was immobilized directly to a CM5 sensor chip (2000 resonance units (RU)). Solution containing either 10 μM of CGEN-CL1 [SEQ ID NO:1] peptide or a mixture of CGEN-CL1 and its partner helix (SEQ ID NO:5), 10 μM each, preincubated for 30 minutes at room temperature, was injected to the BIAcore. As a background, the solutions were also injected onto an empty flow cell with no immobilized ligand and the binding levels achieved were subtracted. Data was analyzed using BIAevaluation software.

[2] = test system: HT29 colorectal adenocarcinoma cells; assay: MTT assay, growth of HT29 cells treated with CGEN-CL1; type: cell-based
Method: CGEN-CL1 as synthesized in Example 1 was analyzed for its ability to induce growth arrest in various cancer cell lines, such as: breast cancer cell line MCF-7 (Adenocarcinoma, Breast, HTB-22, ATCC), PC3 (Adenocarcinoma, Prostate, CRL-1435, ATCC), A549 (carcinoma, Lung, CCL-185, ATCC), HT-29 (Colorectal Adenocarcinoma, Colon, HTB-38, ATCC) and SK-mel 5 (Melanoma, Skin, HTB70, ATCC).
HT29 cells were seeded at 10,000 cells per well in 150 μl of media (DMEM medium+5% FBS) in a 96 well plate.
CGEN-CL1 (1 mg dissolved in 2500 of Sodium bi-carbonate to a stock concentration of 4 mg/ml) was added to the wells in 500 of medium (final volume of 2000) as detailed in Table 2. The relative growth was normalized to controls where CGEN-CL1 was not added to wells.
20 μl of MTT (3-(4,5-Dimethyl-2-thiazolyl)-2,5-diphenyl-2H-tetrazolium bromide) solution (Sigma Cat#M5655, lot#085k5322, 1 gr was dissolved in 200 ml H2O and filtered, giving a final concentration of 5 mg/ml) was added to each well and incubated for 4 hours at 37° C. after which the medium was vacuumed and 100 μl of DMSO was added to each well. Absorbance was measured in an ELISA reader at 492 nm.

PC3 cells = assay: Cell cycle analysis by propidium iodide staining (FACS) in PC3 cells; type: cell-based; details: 300 nM or 1 μM CGEN-CL1, PI staining
Method: Apoptosis was analyzed either by cell cycle analysis or by PARP cleavage estimation. The amount of cleaved PARP is proportional to the amount of cells undergoing apoptosis (see for example Boulares A. H., et al., 1999, JBC 274:22932-22940).
Cell Cycle Analysis was carried out by Propidium Iodide (PI) Staining. The cells were trypsinized and suspended in DMEM medium+10% FCS. Following centrifugation (1000 rpm, 5 min) the cell pellet was suspended in PBS (1 ml). Fixation with EtOH was performed as follows: cell suspension was transferred into 2.5 ml absolute EtOH (final concentration approx. 70%) by pipetting or by vortexing the suspension at half speed while adding the EtOH) to prevent clustering of cells during the fixation. EtOH fixated cells were incubated on ice for 15 min (or overnight at −20° C.).
Propidium Iodide (PI) staining of the cells was carried out as follows: the cells were pelleted at 1500 rpm for 5 min and then suspended in 500 μl PI-solution (in PBS: 50 μg/ml PI from 50× stock solution (2.5 mg/ml); 0.1 mg/ml RNase A; 0.05% Triton X-100), following incubation for 40 min at 37° C. Then 3 ml of PBS were added, and the cells were pelleted at 1500 rpm, 5 min. The cell pellet was suspended in 500 μl PBS for flow analysis. The flow analysis was carried out using the following approximate settings (on FACSort): FL1: 570 V log; FL2: 470 V linear.

A549 cells = assay: MTT viability assay of A549 cells, CGEN-CL1 pre-incubated with helix partner; type: cell-based, human; details: 150 nM CGEN-CL1 pre-incubated 30 min with equimolar SEQ ID NO:5
Method: In order to evaluate whether the two computationally identified α-helices (CGEN-CL1 (SEQ ID NO: 1) and its helix partner (SEQ ID NO: 5)) bind to each other in the Clusterin protein, a co-incubation of the two peptides was analyzed for its ability to eliminate the biological activity of CGEN-CL1.
Pre-incubation for 30 minutes of 150 nM CGEN-CL1 peptide (SEQ ID NO:1) with an equimolar concentration of the helix partner (SEQ ID NO:5) was carried out at room temperature. CGEN-CL1 peptide (SEQ ID NO:1) alone, or the helix partner (SEQ ID NO:5) alone or the pre-incubated CGEN-CL1 peptide (SEQ ID NO:1) with helix partner (SEQ ID NO:5) were used for viability assay of A549 cells, using MTT assay as described in Example 2 herein.

T1 sequence (P10909 23-449): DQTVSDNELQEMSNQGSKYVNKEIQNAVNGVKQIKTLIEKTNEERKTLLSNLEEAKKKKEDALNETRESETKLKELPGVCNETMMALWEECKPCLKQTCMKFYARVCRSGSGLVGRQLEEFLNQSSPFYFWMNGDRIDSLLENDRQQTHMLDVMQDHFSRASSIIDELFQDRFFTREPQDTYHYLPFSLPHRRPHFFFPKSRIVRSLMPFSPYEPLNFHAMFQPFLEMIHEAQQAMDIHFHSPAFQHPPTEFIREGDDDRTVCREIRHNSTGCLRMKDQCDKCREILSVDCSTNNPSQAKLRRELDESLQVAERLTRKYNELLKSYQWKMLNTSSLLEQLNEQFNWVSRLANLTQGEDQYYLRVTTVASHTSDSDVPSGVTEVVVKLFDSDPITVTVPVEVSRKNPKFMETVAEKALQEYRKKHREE

CC[C@H](C)[C@H](NC(=O)[C@H](CCCNC(=N)N)NC(=O)[C@H](CC(=O)O)NC(=O)CNC(=O)[C@H](CC(N)=O)NC(=O)[C@H](CCSC)NC(=O)[C@H](Cc1c[nH]c2ccccc12)NC(=O)[C@H](Cc1ccccc1)NC(=O)[C@H](Cc1ccc(O)cc1)NC(=O)[C@H](Cc1ccccc1)NC(C)=O)C(=O)N[C@@H](CC(=O)O)C(=O)N[C@@H](CO)C(=O)N[C@@H](CC(C)C)C(=O)N[C@@H](CC(C)C)C(=O)N[C@@H](CCC(=O)O)C(=O)N[C@@H](CC(N)=O)C(=O)N[C@@H](CC(=O)O)C(=O)N[C@@H](CCCNC(=N)N)C(=O)N[C@@H](CCC(N)=O)C(=O)N[C@@H](CCC(N)=O)C(=O)N[C@H](C(N)=O)[C@@H](C)O [CGEN-CL1] (Ac-FYFWMNGDRIDSLLENDRQQT-NH2)
binding of CGEN-CL1 to recombinant Clusterin after co-incubation with partner helix [1]: completely abolished the binding
growth inhibition as revealed by cellular viability [2]: evoked growth inhibition
percentage of apoptotic cells (PC3 cells): increased the percentage of apoptotic cells
percentage of cells in cell cycle phases (PC3 cells): increased the percentage of cells in cell cycle phases G0/G1 and G2/M
biological effect (growth inhibition) of CGEN-CL1 in the presence of partner helix peptide (A549 cells): abolished
